Inconclusive results and toxic doses are left out. Rule as the data show it: active = T/C of 150% or more; inactive = T/C below 125%.
Tested on: L1210 leukemia ip in BDF1 mice, survival T/C
Test: NCI In Vivo Anticancer Drug Screen. Data for tumor model L1210 Leukemia (intraperitoneal) in B6D2F1 (BDF1) mice
Settings: endpoint: mean survival time, higher = longer survival
Summary of the method: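 Read-out is survival time, reported as the treated-group measurement over the vehicle-control measurement.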

[1] = dose: 400.0 mg/kg/injection, schedule: Q01DX001 (ip), vehicle: carboxymethylcellulose (CMC)
[2] = dose: 100.0 mg/kg/injection, schedule: Q01DX001 (ip), vehicle: saline
[3] = dose: 200.0 mg/kg/injection, schedule: Q01DX001 (ip), vehicle: saline
[4] = dose: 400.0 mg/kg/injection, schedule: Q01DX001 (ip), vehicle: saline
[5] = dose: 100.0 mg/kg/injection, schedule: Q01DX009 (ip), vehicle: Klucel (hydroxypropylcellulose) (HPC)
[6] = dose: 200.0 mg/kg/injection, schedule: Q01DX009 (ip), vehicle: Klucel (hydroxypropylcellulose) (HPC)
[7] = dose: 400.0 mg/kg/injection, schedule: Q01DX009 (ip), vehicle: Klucel (hydroxypropylcellulose) (HPC)
[8] = dose: 100.0 mg/kg/injection, schedule: Q04DX003 (ip), vehicle: Klucel (hydroxypropylcellulose) (HPC)
[9] = dose: 200.0 mg/kg/injection, schedule: Q04DX003 (ip), vehicle: Klucel (hydroxypropylcellulose) (HPC)
[10] = dose: 400.0 mg/kg/injection, schedule: Q04DX003 (ip), vehicle: Klucel (hydroxypropylcellulose) (HPC)
[11] = dose: 50.0 mg/kg/injection, schedule: Q01DX009 (ip), vehicle: Klucel (hydroxypropylcellulose) (HPC)
[12] = dose: 100.0 mg/kg/injection, schedule: Q01DX001 (ip), vehicle: Klucel (hydroxypropylcellulose) (HPC)
[13] = dose: 200.0 mg/kg/injection, schedule: Q01DX001 (ip), vehicle: Klucel (hydroxypropylcellulose) (HPC)
[14] = dose: 100.0 mg/kg/injection, schedule: Q04DX003 (ip), vehicle: saline
[15] = dose: 200.0 mg/kg/injection, schedule: Q04DX003 (ip), vehicle: saline
[16] = dose: 400.0 mg/kg/injection, schedule: Q04DX003 (ip), vehicle: saline

Measured: T/C

CC(=O)OC(CO)C(NC(=O)N1C(=O)C=CC1=O)NC(=O)N1C(=O)C=CC1=O (configuration not stated)
inactive: dose: 100.0 mg/kg/injection, schedule: Q01DX001 (ip), vehicle: carboxymethylcellulose (CMC) 95 % of control | dose: 200.0 mg/kg/injection, schedule: Q01DX001 (ip), vehicle: carboxymethylcellulose (CMC) 101 % of control | [1] 113 % of control

N#CCC(O)(c1ccccc1)c1ccccc1
inactive: dose: 50.0 mg/kg/injection, schedule: Q01DX001 (ip), vehicle: saline 102 % of control | [2] 98 % of control | [3] 98 % of control | [4] 104 % of control

N#CCCC1C(C#N)C2CC1C1C3CCC(C3)C21 (configuration not stated)
inactive: dose: 100.0 mg/kg/injection, schedule: Q01DX009 (ip), vehicle: other 100 % of control | dose: 200.0 mg/kg/injection, schedule: Q01DX009 (ip), vehicle: other 101 % of control | dose: 400.0 mg/kg/injection, schedule: Q01DX009 (ip), vehicle: other 90 % of control

O=C(OCC#CC#CCOC(=O)c1cccc2ccccc12)c1cccc2ccccc12
inactive: [5] 93 % of control | [6] 89 % of control | [7] 93 % of control

CC(=O)OC(C(=O)c1ccccc1)c1ccccc1 (configuration not stated)
inactive: [5] 94 % of control | [8] 104 % of control | [6] 94 % of control | [9] 104 % of control | [7] 104 % of control | [10] 91 % of control

Cc1c(-c2ccccc2)n(O)[n+]([O-])c1-c1ccccc1
inactive: [11] 98 % of control | [5] 94 % of control | [6] 94 % of control

CCCCN(CCCC)CC(O)c1ccc2cc(Cl)cc(Cl)c2n1 (configuration not stated)
inactive: dose: 6.25 mg/kg/injection, schedule: Q01DX009 (ip), vehicle: saline with Tween-80 94 % of control | dose: 6.25 mg/kg/injection, schedule: Q04DX003 (ip), vehicle: saline with Tween-80 98 % of control | dose: 12.5 mg/kg/injection, schedule: Q01DX009 (ip), vehicle: saline with Tween-80 98 % of control | dose: 12.5 mg/kg/injection, schedule: Q04DX003 (ip), vehicle: saline with Tween-80 95 % of control | dose: 25.0 mg/kg/injection, schedule: Q01DX009 (ip), vehicle: saline with Tween-80 98 % of control | dose: 25.0 mg/kg/injection, schedule: Q04DX003 (ip), vehicle: saline with Tween-80 95 % of control

CC(O)Cc1c[nH]c(=O)[nH]c1=O (configuration not stated)
inactive: dose: 100.0 mg/kg/injection, schedule: Q01DX009 (ip), vehicle: water 98 % of control | dose: 100.0 mg/kg/injection, schedule: Q04DX003 (ip), vehicle: water 94 % of control | dose: 200.0 mg/kg/injection, schedule: Q01DX009 (ip), vehicle: water 107 % of control | dose: 200.0 mg/kg/injection, schedule: Q04DX003 (ip), vehicle: water 98 % of control | dose: 400.0 mg/kg/injection, schedule: Q01DX009 (ip), vehicle: water 96 % of control | dose: 400.0 mg/kg/injection, schedule: Q04DX003 (ip), vehicle: water 93 % of control

CC1(C)C2CC1C(O)(C(=O)O)C2 (configuration not stated)
inactive: dose: 75.0 mg/kg/injection, schedule: Q01DX001 (ip), vehicle: acetone 94 % of control | dose: 150.0 mg/kg/injection, schedule: Q01DX001 (ip), vehicle: acetone 97 % of control | dose: 300.0 mg/kg/injection, schedule: Q01DX001 (ip), vehicle: acetone 96 % of control

CC(C)(C)OC(=O)CC#N
inactive: dose: 75.0 mg/kg/injection, schedule: Q04DX003 (ip), vehicle: saline 97 % of control | [2] 97 % of control | dose: 150.0 mg/kg/injection, schedule: Q04DX003 (ip), vehicle: saline 94 % of control | [3] 101 % of control | dose: 300.0 mg/kg/injection, schedule: Q04DX003 (ip), vehicle: saline 100 % of control

Cc1c2oc3c(C)ccc(C(=O)NCCN4CCCCC4)c3nc-2c(C(=O)NCCN2CCCCC2)c(N)c1=O
inactive: dose: 100.0 mg/kg/injection, schedule: Q04DX002 (ip), vehicle: saline 103 % of control | dose: 200.0 mg/kg/injection, schedule: Q04DX002 (ip), vehicle: saline 109 % of control

CN(c1ccccc1)c1cc(=O)[nH]c(=O)[nH]1
inactive: [12] 95 % of control | [13] 104 % of control | dose: 400.0 mg/kg/injection, schedule: Q01DX001 (ip), vehicle: Klucel (hydroxypropylcellulose) (HPC) 99 % of control

CC(C)(C)N(N)Cc1ccccc1
inactive: [2] 106 % of control | [3] 95 % of control | [4] 104 % of control

CCC(c1ccc2cc(OC)ccc2c1)C(C(=O)O)C(=O)O (configuration not stated)
inactive: [11] 96 % of control | [5] 107 % of control | [6] 96 % of control

ClC(CN1CCCCC1)C(Cl)c1ccccc1 (configuration not stated)
inactive: dose: 50.0 mg/kg/injection, schedule: Q01DX009 (ip), vehicle: saline 90 % of control | dose: 50.0 mg/kg/injection, schedule: Q04DX003 (ip), vehicle: saline sonified 96 % of control | dose: 100.0 mg/kg/injection, schedule: Q01DX009 (ip), vehicle: saline 91 % of control | dose: 100.0 mg/kg/injection, schedule: Q04DX003 (ip), vehicle: saline sonified 91 % of control | dose: 200.0 mg/kg/injection, schedule: Q04DX003 (ip), vehicle: saline sonified 101 % of control

CCCCCCCCCCCCCCCCCC[Se]CCCCCCCCCCCCCCCCCC
inactive: dose: 100.0 mg/kg/injection, schedule: Q04DX003 (ip), vehicle: saline with Tween-80 88 % of control | dose: 200.0 mg/kg/injection, schedule: Q04DX003 (ip), vehicle: saline with Tween-80 92 % of control | dose: 400.0 mg/kg/injection, schedule: Q04DX003 (ip), vehicle: saline with Tween-80 93 % of control

Cc1ccc(C)c(NC(=O)N(Cc2ccccc2)Cc2ccccc2)c1
inactive: [5] 94 % of control | [6] 91 % of control | [7] 96 % of control

CCOCc1ccc(O)c2ncccc12
inactive: dose: 264.0 mg/kg/injection, schedule: Q01DX001 (ip), vehicle: carboxymethylcellulose (CMC) 106 % of control | [1] 107 % of control

O=C1C(=C(C(F)(F)F)C(F)(F)F)CCc2ccccc21
inactive: [11] 95 % of control | [12] 91 % of control | [5] 93 % of control | [13] 91 % of control

CC(=O)OC1OC(COC(=O)c2ccc([N+](=O)[O-])cc2)C(NC(=O)C(F)(F)F)C1OC(C)=O (configuration not stated)
inactive: [14] 90 % of control | [15] 96 % of control | [16] 95 % of control

CCOC(=O)c1cnn(C(N)=O)c1N
inactive: dose: 100.0 mg/kg/injection, schedule: Q01DX009 (ip), vehicle: saline with Tween-80 108 % of control | dose: 200.0 mg/kg/injection, schedule: Q01DX009 (ip), vehicle: saline with Tween-80 96 % of control

CCOC(=O)C(CCc1ccncc1)c1ccccc1 (configuration not stated)
inactive: dose: 111.0 mg/kg/injection, schedule: Q01DX Z (ip), vehicle: methylcellulose (MC) 94 % of control | dose: 166.0 mg/kg/injection, schedule: Q01DX Z (ip), vehicle: methylcellulose (MC) 102 % of control | dose: 250.0 mg/kg/injection, schedule: Q01DX Z (ip), vehicle: methylcellulose (MC) 96 % of control

C/C(=N/OC(=O)N(C)C)c1cc(Cl)ccc1Cl
inactive: [2] 100 % of control | [3] 100 % of control

CC(=O)Nc1ccc(OC(=O)Nc2ccccc2Cl)cc1
inactive: [5] 101 % of control | [8] 96 % of control | [9] 95 % of control | [7] 101 % of control | [10] 95 % of control

COc1ccc(Nc2cc(N)nc(N)n2)c(=S)[nH]1
inactive: [14] 97 % of control | [15] 97 % of control | [16] 93 % of control

COc1ccccc1NC(=O)C(N=Nc1ccc(S(=O)(=O)Nc2onc(C)c2C)cc1)C(C)=O (configuration not stated)
inactive: dose: 75.0 mg/kg/injection, schedule: Q01DX001 (ip), vehicle: saline 92 % of control | dose: 150.0 mg/kg/injection, schedule: Q01DX001 (ip), vehicle: saline 94 % of control | dose: 300.0 mg/kg/injection, schedule: Q01DX001 (ip), vehicle: saline 87 % of control

OCc1ncn[nH]1
inactive: [2] 102 % of control | [3] 95 % of control | [4] 107 % of control

CCCCCCCCC(=O)N1CCCCC1C (configuration not stated)
inactive: dose: 100.0 mg/kg/injection, schedule: Q04DX002 (ip), vehicle: Klucel (hydroxypropylcellulose) (HPC) 96 % of control | dose: 200.0 mg/kg/injection, schedule: Q04DX002 (ip), vehicle: Klucel (hydroxypropylcellulose) (HPC) 100 % of control | dose: 400.0 mg/kg/injection, schedule: Q04DX002 (ip), vehicle: Klucel (hydroxypropylcellulose) (HPC) 88 % of control
